Test systems include HS 578T breast; MALME-3M melanoma; NCI-H23 lung; NCI-H522 lung; RXF 393 renal; SF-268 CNS; SF-295 CNS; SK-MEL-2 melanoma; UACC-257 melanoma; UO-31 renal.
Holding throughout (assay): growth of human tumour cells (NCI), 48 h

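Results reflect a 48-hour exposure of cells in 96-well plates to compound at five concentrations. GI50 marks 50% less growth. TGI marks complete inhibition of growth.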 Some results are limits rather than exact numbers.

Here are results for two molecules from PubChem BioAssay (NCI).

Turning to `COC(=O)[C@H](Cc1cn(C)cn1)NC(=O)[C@H](Cc1c[nH]c2ccccc12)NC(=O)Nc1cc(C(F)(F)F)cc(C(F)(F)F)c1`, the GI50 with HS 578T breast, with MALME-3M melanoma, in the assay with NCI-H23 lung, in the assay with NCI-H522 lung, with RXF 393 renal and with SF-268 CNS was over 10000 nM in each case. Moreover, the GI50 with SF-295 CNS, in the assay on SK-MEL-2 melanoma, in the assay on UACC-257 melanoma and with UO-31 renal was over 10000 nM throughout. In addition, the TGI in the assay on HS 578T breast, with MALME-3M melanoma, in the assay on NCI-H23 lung, in the assay with NCI-H522 lung, with RXF 393 renal and in the assay with SF-268 CNS was over 10000 nM in each case. Further, the TGI in the assay with SF-295 CNS, in the assay on SK-MEL-2 melanoma, in the assay with UACC-257 melanoma and in the assay with UO-31 renal was over 10000 nM throughout.
`N#Cc1cnc2cc(OC[C@H](O)CO)c(NC(=O)CC3CSSC3)cc2c1Nc1ccc(OCc2cccc(F)c2)c(Cl)c1`: the GI50 in the assay with HS 578T breast is 447 nM; in the assay on MALME-3M melanoma, 970 nM; in the assay with NCI-H23 lung, 772 nM; with NCI-H522 lung, 729 nM; with RXF 393 renal, 987 nM; with SF-268 CNS, 537 nM. Besides, the GI50 with SF-295 CNS is 830 nM; in the assay on SK-MEL-2 melanoma, 638 nM; with UACC-257 melanoma it was 1010 nM; in the assay with UO-31 renal it was 2110 nM. Also, the TGI in the assay with HS 578T breast was found to be 1690 nM; with MALME-3M melanoma it was 2060 nM; with NCI-H23 lung, 1700 nM; in the assay with NCI-H522 lung it was 1590 nM; with RXF 393 renal it was 1850 nM; in the assay with SF-268 CNS, 1560 nM. Also, the TGI worked out at 1600 nM in the assay on SF-295 CNS, 1400 nM with SK-MEL-2 melanoma, 1960 nM in the assay with UACC-257 melanoma and 7750 nM with UO-31 renal.
